Experimental data: ChEMBL document CHEMBL1201862, “PubChem BioAssay data set” (2004)
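Method: 48-hour compound exposure of cells in 96-well plates, five concentrations, linear interpolation of endpoints. GI50 marks 50% less growth.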 Activity calls are given as the source filed them. Rule as the data show it: active = GI50 up to about 1.1 µM and inactive = higher.

Tests used:
Assay in all cases: growth of human tumour cells (NCI), 48 h
[1] = system: OVCAR-3
[2] = system: HCT-116
[3] = system: TK-10
[4] = system: COLO 205
[5] = system: HT-29
[6] = system: OVCAR-8
[7] = system: SR
[8] = system: XF498
[9] = system: KM-20L2
[10] = system: A549
[11] = system: Malme-3M
[12] = system: SNB-78
[13] = system: SW-620
[14] = system: HCC 2998
[15] = system: KM12
[16] = system: HL-60
[17] = system: SN12C
[18] = system: SNB-19
[19] = system: NCI-H226
[20] = system: SK-OV-3
[21] = system: K562
[22] = system: SF-268
[23] = system: UACC-62
[24] = system: HCT-15
[25] = system: UO-31
[26] = system: LOX IMVI
[27] = system: SF-295
[28] = system: A498
[29] = system: IGROV-1
[30] = system: NCI-H460
[31] = system: RPMI-8226
[32] = system: HOP-18
[33] = system: UACC-257
[34] = system: DMS-114
[35] = system: SK-MEL-28
[36] = system: NCI-H522
[37] = system: DMS-273
[38] = system: RXF 393
[39] = system: EKVX
[40] = system: LXFL 529
[41] = system: CCRF-CEM
[42] = system: HOP-92
[43] = system: SK-MEL-2
[44] = system: HOP-62
[45] = system: ACHN
[46] = system: M19-MEL
[47] = system: OVCAR-5
[48] = system: SK-MEL-5
[49] = system: DLD-1
[50] = system: MOLT-4
[51] = system: M14
[52] = system: SNB-75
[53] = system: RXF 631
[54] = system: 786-0
[55] = system: CAKI-1
[56] = system: NCI-H23
[57] = system: U-251
[58] = system: OVCAR-4
[59] = system: SF-539

In the case of `C/C(=C1/N=C(c2cc([N+](=O)[O-])ccc2Cl)N(c2cccc(C)c2)C1=O)c1cc2ccccc2oc1=O`, the GI50 [1] is reported as 28.3 µM (inactive), the GI50 [2] is reported as 47.4 µM (inactive) and the GI50 [3] is reported as > 100 µM (inactive). For the same compound, the GI50 [4] was 45.3 µM (inactive), the GI50 [5] was 58.5 µM (inactive) and the GI50 [6] was > 100 µM (inactive). For the same compound, the GI50 [7] was 30.3 µM (inactive), the GI50 [8] was 21 µM (inactive) and the GI50 [9] was > 100 µM (inactive). For the same compound, the GI50 [10] was > 100 µM (inactive), the GI50 [11] was > 100 µM (inactive) and the GI50 [12] was > 100 µM (inactive). The GI50 [13] was 29.4 µM (inactive), the GI50 [14] was > 100 µM (inactive) and the GI50 [15] was 64 µM (inactive). The GI50 [16] was 28.7 µM (inactive), the GI50 [17] was > 100 µM (inactive) and the GI50 [18] was 95.5 µM (inactive). For the same compound, the GI50 [19] was 43.6 µM (inactive), the GI50 [20] was > 100 µM (inactive) and the GI50 [21] was 33.7 µM (inactive). For the same compound, the GI50 [22] was > 100 µM (inactive), the GI50 [23] was 21.8 µM (inactive) and the GI50 [24] was 36.7 µM. For the same compound, the GI50 [25] was > 100 µM (inactive), the GI50 [26] was 16.7 µM (inactive) and the GI50 [27] was > 100 µM (inactive). The GI50 [28] was > 100 µM (inactive), the GI50 [29] was 45.1 µM (inactive) and the GI50 [30] was 47.8 µM (inactive). The GI50 [31] was 20.4 µM (inactive), the GI50 [32] was 74.6 µM (inactive) and the GI50 [33] was 17.3 µM (inactive). The GI50 [34] was 27.1 µM (inactive), the GI50 [35] was > 100 µM (inactive) and the GI50 [36] was 13.6 µM (inactive). For the same compound, the GI50 [37] was 80.7 µM (inactive), the GI50 [38] was 59.6 µM (inactive) and the GI50 [39] was > 100 µM (inactive). The GI50 [40] was 84.9 µM (inactive), the GI50 [41] was 23.3 µM (inactive) and the GI50 [42] was 76.2 µM (inactive). For the same compound, the GI50 [43] was > 100 µM (inactive), the GI50 [44] was > 100 µM (inactive) and the GI50 [45] was 48.8 µM (inactive). For the same compound, the GI50 [46] was 66.2 µM (inactive), the GI50 [47] was > 100 µM (inactive) and the GI50 [48] was 14 µM (inactive). For the same compound, the GI50 [49] was 31.7 µM (inactive), the GI50 [50] was 21.3 µM (inactive) and the GI50 [51] was > 100 µM (inactive). The GI50 [52] was > 100 µM (inactive), the GI50 [53] was > 100 µM (inactive) and the GI50 [54] was > 100 µM (inactive). The GI50 [55] was > 100 µM (inactive) and the GI50 [56] was 35.2 µM (inactive).
`O=C1c2c(n(Cc3ccccc3)c(=O)n2Cc2ccccc2)C(=O)N1Cc1ccccc1` was tested, and the GI50 [1] was 49.2 µM (inactive), the GI50 [2] was 40.3 µM (inactive) and the GI50 [57] was 50.4 µM (inactive). For the same compound, the GI50 [3] was > 100 µM (inactive), the GI50 [4] was > 100 µM (inactive) and the GI50 [5] was 82.2 µM (inactive). For the same compound, the GI50 [6] was > 100 µM (inactive), the GI50 [8] was 16.4 µM (inactive) and the GI50 [58] was 46.5 µM (inactive). For the same compound, the GI50 [9] was 52.7 µM (inactive), the GI50 [10] was 41.9 µM (inactive) and the GI50 [11] was > 100 µM (inactive). The GI50 [12] was > 100 µM (inactive), the GI50 [13] was 47.9 µM (inactive) and the GI50 [14] was 61.4 µM (inactive). For the same compound, the GI50 [15] was 55.5 µM (inactive), the GI50 [16] was 0.782 µM (active) and the GI50 [17] was 65.5 µM (inactive). The GI50 [18] was 89.1 µM (inactive), the GI50 [19] was 92.7 µM (inactive) and the GI50 [20] was > 100 µM (inactive). For the same compound, the GI50 [21] was 58.1 µM (inactive), the GI50 [22] was 64.1 µM (inactive) and the GI50 [23] was 41.4 µM (inactive). For the same compound, the GI50 [24] was 47.8 µM, the GI50 [25] was 50.2 µM (inactive) and the GI50 [26] was 32.4 µM (inactive). The GI50 [27] was 72.3 µM (inactive), the GI50 [28] was 70 µM (inactive) and the GI50 [29] was 93.5 µM (inactive). For the same compound, the GI50 [30] was 72.4 µM (inactive), the GI50 [31] was 22.8 µM (inactive) and the GI50 [32] was > 100 µM (inactive). For the same compound, the GI50 [33] was 67.6 µM (inactive), the GI50 [34] was 34.6 µM (inactive) and the GI50 [35] was > 100 µM (inactive). The GI50 [36] was 56.1 µM (inactive), the GI50 [37] was 31.4 µM (inactive) and the GI50 [38] was 37.9 µM (inactive). The GI50 [39] was 66.8 µM (inactive), the GI50 [40] was 35 µM (inactive) and the GI50 [41] was 9.2 µM (inactive). The GI50 [42] was > 100 µM (inactive), the GI50 [59] was > 100 µM (inactive) and the GI50 [43] was 46.3 µM (inactive). For the same compound, the GI50 [44] was > 100 µM (inactive), the GI50 [45] was 91.6 µM (inactive) and the GI50 [46] was > 100 µM (inactive). The GI50 [47] was > 100 µM (inactive), the GI50 [48] was 50.5 µM (inactive) and the GI50 [49] was 63 µM (inactive). For the same compound, the GI50 [50] was 54.6 µM (inactive), the GI50 [51] was > 100 µM (inactive) and the GI50 [52] was 64.7 µM (inactive). The GI50 [53] was 62.7 µM (inactive), the GI50 [54] was > 100 µM (inactive) and the GI50 [55] was 65.8 µM (inactive). The GI50 [56] was 38.6 µM (inactive).
